Here are results for one compound from patent US9040080B2, “Processing of heat-sensitive active agents” (SOUTHWEST RESEARCH INSTITUTE, priority 2008, dated 2015).

Series [1] in a line: Drug degradation on direct melt processing (extrusion) with PLGA. To be noted: directly melt processed by extrusion with poly(lactic acid-co glycolic acid) at 75:25 and 85:15 molar ratios, 140° C.-160° C. Type of series: physicochemical. On the procedure:
For example, about 5% drug degradation was found when brinzolamide, having a melting point in the range of 130-131° C. was directly melt processed by extrusion with poly(lactic acid-co glycolic acid) at 75:25 and 85:15 molar ratios. Melt processing temperatures of the poly(lactic-co glycolic acid) were in the range of 140° C.-160° C.

A short description of series [2]: HPLC analysis of thermal degradation of brinzolamide in extruded fibers. Conditions: PLGA microspheres (40%) extruded with poly(caprolactone) (60%). In kind it is physicochemical. From the text: The active ingredient brinzolamide was microencapsulated in two poly(lactic acid-co-glycolic acid) (PLGA) copolymers, one having a molar ratio of 75/25 (PLGA7525) and one having a molar ratio of 85/15 (PLGA 8515) as discussed further below. The theoretical amount of active agent was 40% by weight in each microencapsulation formulation. The two microsphere formulations were extruded with a lower melting point polymer, poly(caprolactone) (CAPA686), wherein the microspheres were present at 40% by weight and the poly(caprolactone) was present at 60% by weight, forming fibers incorporating the microcapsules therein.

The structures appear in SMILES notation.

For `CCN[C@H]1CN(CCCOC)S(=O)(=O)c2sc(S(N)(=O)=O)cc21` [brinzolamide, (R)-(+)-4-Ethylamino-2-(3-methoxypropyl)-3,4-dihydro-2H-thieno[3,2-e]-1,2-thiazine-6-sulfonamide-1,1-dioxide], the drug degradation entry in series [1] is “about 5%”. Also, the “thermal degradation of brinzolamide in the fibers” value in series [2] is “absence of thermal degradation”.
